Source: patent US12679843B2, “Pyrrolopyrimidine amines as complement inhibitors” (BioCryst Pharmaceuticals, Inc., priority 2020, dated 2026)

biological target: Factor D (Homo sapiens, UniProt P00746); experiment: Factor D esterolytic assay (Z-Lys-SBzl thioester substrate, DTNB, 405 nm); type: biochemical; conditions: substrate Z-Lys-SBzl 1.29 mM, 100 mM HEPES, 500 mM NaCl, pH 7.5, 10% DMSO, tested a minimum of three times
Procedure: The IC50 value of a compound (i.e., the concentration of the compound that inhibits 50% of the enzymatic activity) was calculated according to the procedure reported in U.S. Pat. No. 6,653,340 B1, e.g., column 74 (incorporated by reference).
Specifically, the compounds were dissolved in a stock solution of DMSO at 10.0 or 100 mM. A portion of this stock solution was added to assay buffer in a final volume of 50 μL. Controls included buffer alone and enzyme solutions to which DMSO was added. Substrate was added to the reaction wells immediately or after incubation at room temperature. The reaction rates were measured spectrophotometrically by the generation of product at 405 nm for 600 sec. Background absorbance at 690 nm was measured and subtracted from the absorbance at 405 nm for each well.
The reaction rate for enzyme alone was compared to the rate of enzyme in the presence of inhibitor and the percent inhibition was calculated as shown below: Percent Inhibition=[Rate without inhibitor−Rate with inhibitor)/(Rate without inhibitor)]−100 Factor D Esterolytic Assay:
An established esterolytic assay for the measurement of Factor D activity and inhibition of Factor D activity was used (Kam, C. M.; McRae, B. J.; Harper, J. W.; Niemann, M. A.; Volanakis, J. E.; Powers, J. C. Human complement proteins D. C2, and B Active site mapping with peptide thioester substrates. J Biol. Chem. 1987, 262, 3444-3451). For this assay Z-Lys-SBzl, 1.29 mM (Kim, S.; Narayana, S. V. L; Volanakis, J. E. Mutational analysis of the substrate binding site of human complement Factor D. Biochemistry, 1994, 33, 14393-14399) was used as the substrate for Factor D ([…]). Hydrolysis of this compound by Factor D liberated a free sulfhydryl group which is then reacted with 5,5′-dithiobis(2-nitrobenzoic acid) producing an intense yellow color (Habeeb, A. F. S. A. Reaction of protein sulfhydryl groups with Ellman's Reagent. Methods in Enzymol. 1976, 25, 457-464). The assays were performed in 96 well microtiter plates and rates of hydrolysis were monitored at 405 nm on a Biotek Synergy H1 plate reader. Hydrolysis rates were reported as change in mOD/min. The assay was conducted in 100 mM HEPES, 500 mM NaCl, pH 7.5 containing 10% DMSO in a final volume of 50 μL per well.
An IC50, a compound concentration which inhibits 50% of the enzymatic activity, was calculated. Compounds in the examples were tested a minimum of three times.

Factor D, sequence (P00746 26-253): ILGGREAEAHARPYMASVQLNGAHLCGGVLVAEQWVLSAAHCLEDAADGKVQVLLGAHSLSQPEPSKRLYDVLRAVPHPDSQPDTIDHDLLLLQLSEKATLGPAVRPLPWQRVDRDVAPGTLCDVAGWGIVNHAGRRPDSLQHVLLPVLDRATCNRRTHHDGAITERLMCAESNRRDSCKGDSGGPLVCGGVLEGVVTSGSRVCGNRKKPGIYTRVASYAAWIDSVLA

IC50	Compound
> 1000 nM	CC1(C)CC(O)CC(NC(=O)[C@@H]2C[C@H]3C[C@H]3N2C(=O)Cn2cnc3c(N)ncnc32)C1 (mixture of isomers) [Compound 106b, (1R,3S,5R)-2-(2-(6-amino-9H-purin-9-yl)acetyl)-N-(5-hydroxy-3,3-dimethylcyclohexyl)-2-azabicyclo[3.1.0]hexane-3-carboxamide]
> 1000 nM	Cc1ccc2c(c1)c1c(N)ncnc1n2C(C)C(=O)N1[C@@H]2C[C@@H]2C[C@H]1C(=O)Nc1cccc(Br)n1 (single isomer, unassigned) [Compound 22c]
> 1000 nM	Cc1ccc2c(c1)c1c(N)ncnc1n2C(C)C(=O)N1[C@@H]2C[C@@H]2C[C@H]1C(=O)Nc1cccc(Br)n1 (single isomer, unassigned) [Compound 22d]
100 to 1000 nM	Nc1ncnc2c1cc1n2C(C(=O)N2[C@@H](C(=O)Nc3cccc(Br)n3)C[C@@H]3C[C@@H]32)Oc2ccccc2-1 (single isomer, unassigned) [Compound 293a]
< 100 nM	Nc1ncnc2c1cc1n2C(C(=O)N2[C@@H](C(=O)Nc3cccc(Br)n3)C[C@@H]3C[C@@H]32)Oc2ccccc2-1 (single isomer, unassigned) [Compound 293b]
< 100 nM	Cc1ccc(Br)nc1NC(=O)[C@@H]1C[C@H]2C[C@H]2N1C(=O)Cn1c2ccccc2c2c(N)ncnc21 [Compound 1e, (1R,3S,5R)-2-(2-(4-amino-9H-pyrimido[4,5-b]indol-9-yl)acetyl)-N-(6-bromo-3-methylpyridin-2-yl)-2-azabicyclo[3.1.0]hexane-3-carboxamide]
> 1000 nM	Cc1ccc(Br)nc1NC(=O)[C@@H]1C[C@H]2C[C@H]2N1C(=O)Cc1ccc2c(N)ncnn12 [Compound 2d, (1R,3S,5R)-2-(2-(4-aminopyrrolo[2,1-f][1,2,4]triazin-7-yl)acetyl)-N-(6-bromo-3-methylpyridin-2-yl)-2-azabicyclo[3.1.0]hexane-3-carboxamide]
< 100 nM	Cc1ccc(Br)nc1NC(=O)[C@@H]1C[C@@H](F)CN1C(=O)Cn1c2ccccc2c2c(N)ncnc21 [Compound 3b, (2S,4R)-1-(2-(4-amino-9H-pyrimido[4,5-b]indol-9-yl)acetyl)-N-(6-bromo-3-methylpyridin-2-yl)-4-fluoropyrrolidine-2-carboxamide]
< 100 nM	Nc1ncnc2c1c1ccccc1n2CC(=O)N1[C@@H]2C[C@@H]2C[C@H]1C(=O)Nc1cccc(Br)n1 [Compound 4b, (1R,3S,5R)-2-(2-(4-amino-9H-pyrimido[4,5-b]indol-9-yl)acetyl)-N-(6-bromopyridin-2-yl)-2-azabicyclo[3.1.0]hexane-3-carboxamide]
100 to 1000 nM	Nc1ncnc2c1ccn2CC(=O)N1C[C@H](F)C[C@H]1C(=O)Nc1cccc(Br)n1 [Compound 5e, (2S,4R)-1-(2-(4-amino-7H-pyrrolo[2,3-d]pyrimidin-7-yl)acetyl)-N-(6-bromopyridin-2-yl)-4-fluoropyrrolidine-2-carboxamide]
< 100 nM	Cc1ccc2c(c1)c1c(N)ncnc1n2CC(=O)N1[C@@H]2C[C@@H]2C[C@H]1C(=O)Nc1cccc(Br)n1 [Compound 6e, (1R,3S,5R)-2-(2-(4-amino-6-methyl-9H-pyrimido[4,5-b]indol-9-yl)acetyl)-N-(6-bromopyridin-2-yl)-2-azabicyclo[3.1.0]hexane-3-carboxamide]
< 100 nM	Cc1ccc2c(c1)c1c(N)ncnc1n2CC(=O)N1C[C@H](F)C[C@H]1C(=O)NCc1cccc(Cl)c1F [Compound 7b, (2S,4R)-1-(2-(4-amino-6-methyl-9H-pyrimido[4,5-b]indol-9-yl)acetyl)-N-(3-chloro-2-fluorobenzyl)-4-fluoropyrrolidine-2-carboxamide]
< 100 nM	Cc1ccc2c(c1)c1c(N)ncnc1n2CC(=O)N1[C@H](C(=O)Nc2cccc(Br)n2)C[C@@]2(C)C[C@@H]12 [Compound 8b, (1R,3S,5R)-2-(2-(4-amino-6-methyl-9H-pyrimido[4,5-b]indol-9-yl)acetyl)-N-(6-bromopyridin-2-yl)-5-methyl-2-azabicyclo[3.1.0]hexane-3-carboxamide]
< 100 nM	C[C@@]12C[C@@H](C(=O)Nc3cccc(Br)n3)N(C(=O)Cn3c4ccccc4c4c(N)ncnc43)[C@@H]1C2 [Compound 9a, (1R,3S,5R)-2-(2-(4-amino-9H-pyrimido[4,5-b]indol-9-yl)acetyl)-N-(6-bromopyridin-2-yl)-5-methyl-2-azabicyclo[3.1.0]hexane-3-carboxamide]
< 100 nM	Cc1ccc2c(c1)c1c(N)ncnc1n2CC(=O)N1[C@H](C(=O)Nc2nc(Br)ccc2C)C[C@@]2(C)C[C@@H]12 [Compound 10b, (1R,3S,5R)-2-(2-(4-amino-6-methyl-9H-pyrimido[4,5-b]indol-9-yl)acetyl)-N-(6-bromo-3-methylpyridin-2-yl)-5-methyl-2-azabicyclo[3.1.0]hexane-3-carboxamide]
< 100 nM	Cc1ccc(Br)nc1NC(=O)[C@@H]1C[C@@]2(C)C[C@H]2N1C(=O)Cn1c2ccc(C(F)(F)F)cc2c2c(N)ncnc21 [Compound 11f, (1R,3S,5R)-2-(2-(4-amino-6-(trifluoromethyl)-9H-pyrimido[4,5-b]indol-9-yl)acetyl)-N-(6-bromo-3-methylpyridin-2-yl)-5-methyl-2-azabicyclo[3.1.0]hexane-3-carboxamide]
< 100 nM	Cc1ccc(Br)nc1NC(=O)[C@@H]1C[C@@]2(C)C[C@H]2N1C(=O)Cn1c2ccccc2c2c(N)ncnc21 [Compound 12a, (1R,3S,5R)-2-(2-(4-amino-9H-pyrimido[4,5-b]indol-9-yl)acetyl)-N-(6-bromo-3-methylpyridin-2-yl)-5-methyl-2-azabicyclo[3.1.0]hexane-3-carboxamide]
100 to 1000 nM	Nc1ncnc2c1c1ccccc1n2CC(=O)N1CCC[C@H]1C(=O)Nc1cccc(Br)n1 [Compound 13b, (S)-1-(2-(4-amino-9H-pyrimido[4,5-b]indol-9-yl)acetyl)-N-(6-bromopyridin-2-yl)pyrrolidine-2-carboxamide]
< 100 nM	Cc1ccc(Br)nc1NC(=O)[C@@H]1C[C@@H](F)CN1C(=O)Cn1c2ccc(C(F)(F)F)cc2c2c(N)ncnc21 [Compound 14a, (2S,4R)-1-(2-(4-amino-6-(trifluoromethyl)-9H-pyrimido[4,5-b]indol-9-yl)acetyl)-N-(6-bromo-3-methylpyridin-2-yl)-4-fluoropyrrolidine-2-carboxamide]
< 100 nM	Cc1ccc(Br)nc1NC(=O)[C@@H]1C[C@H]2C[C@H]2N1C(=O)Cn1c2ccc(C(F)(F)F)cc2c2c(N)ncnc21 [Compound 15a, (1R,3S,5R)-2-(2-(4-amino-6-(trifluoromethyl)-9H-pyrimido[4,5-b]indol-9-yl)acetyl)-N-(6-bromo-3-methylpyridin-2-yl)-2-azabicyclo[3.1.0]hexane-3-carboxamide]
< 100 nM	Nc1ncnc2c1c1ccc(C(F)(F)F)cc1n2CC(=O)N1[C@@H]2C[C@@H]2C[C@H]1C(=O)Nc1cccc(Br)n1 [Compound 16e, (1R,3S,5R)-2-(2-(4-amino-7-(trifluoromethyl)-9H-pyrimido[4,5-b]indol-9-yl)acetyl)-N-(6-bromopyridin-2-yl)-2-azabicyclo[3.1.0]hexane-3-carboxamide]
< 100 nM	CC(C)(C)OC(=O)Nc1ccc2c3c(N)ncnc3n(CC(=O)N3[C@@H]4C[C@@H]4C[C@H]3C(=O)Nc3cccc(Br)n3)c2c1 [Compound 17f, tert-butyl (4-amino-9-(2-((1R,3S,5R)-3-((6-bromopyridin-2-yl)carbamoyl)-2-azabicyclo[3.1.0]hexan-2-yl)-2-oxoethyl)-9H-pyrimido[4,5-b]indol-7-yl)carbamate]
